Square brackets hold non-standard residues; d marks the D form. dOrn = NCCC[C@@H](N)C(=O)O; Dab = NCC[C@H](N)C(=O)O; Dap = NC[C@H](N)C(=O)O

The subject of data set [1] is A. baumannii strains from JMI Laboratories. Particulars: 20 A. baumannii isolates from JMI Laboratories; cited from earlier work.
For data set [2], the system named is Acinetobacter baumannii strains resistant to Polymyxin B and Colistin. Particulars: results provided by MERCK, cited from earlier work.
Data set [3] concerns the molecule itself. Nature of the data set: RP-HPLC temperature profiling, self-association (dimerization/oligomerization) against random coil control RC.
A further data set addresses serum proteins. Nature of the data set: cell-based or functional assay.

As for Ceftazidime-avibactam, the “number of resistant isolates out of the number of isolates screened” value (“number” for short) in data set [1] was 17/20.

In the case of `CO/N=C(\C(=O)N[C@@H]1C(=O)N2C(C(=O)[O-])=C(C[N+]3(C)CCCC3)CS[C@H]12)c1csc(N)n1` [Cefepime], in data set [1], the “number” value is 18/20.

Turning to Gentamicin, the “number” value in data set [1] is 18/20.

Consider `NCC[C@H](O)C(=O)N[C@@H]1C[C@H](N)[C@@H](O[C@H]2O[C@H](CN)[C@@H](O)[C@H](O)[C@H]2O)[C@H](O)[C@H]1O[C@H]1O[C@H](CO)[C@@H](O)[C@H](N)[C@H]1O` [Amikacin], for which, in data set [1], the “number” value is 17/20.

With `C[C@@H](O)[C@H]1C(=O)N2C(C(=O)O)=C(S[C@@H]3CN[C@H](C(=O)N(C)C)C3)[C@H](C)[C@H]12` [Meropenem], in data set [1], the “number” value is listed as 17/20.

With Colistin, the “number” value in data set [1] is 10/20. In addition, the MICGM in data set [2] (geometric mean over seven strains) was more than 28 µM. For the same molecule, the “MIC MB9941” value in data set [2] (strain MB9941) was more than 28 µM. The “MIC MB9949” value in data set [2] (strain MB9949) is more than 28 µM. In addition, the “MIC MB9951” value in data set [2] (strain MB9951) was more than 28 µM. The “MIC MB9952” value in data set [2] (strain MB9952) is more than 28 µM. The “MIC MB9953” value in data set [2] (strain MB9953) is more than 28 µM. Besides, the “MIC MB9955” value in data set [2] (strain MB9955) was more than 28 µM. Moreover, the “MIC MB9963” value in data set [2] (strain MB9963) was more than 28 µM.

As to `O=C(O)c1cn(C2CC2)c2cc(N3CCNCC3)c(F)cc2c1=O` [Ciprofloxacin], the “number” value in data set [1] is listed as 15/20.

`C[C@@H](O)[C@H]1C(=O)N2C(C(=O)O)=C(S[C@@H]3CN[C@H](CNS(N)(=O)=O)C3)[C@H](C)[C@H]12` [Doripenem]: the “number” value in data set [1] is on record as 17/20.

As for `CC(C)(O/N=C(\C(=O)N[C@@H]1C(=O)N2C(C(=O)[O-])=C(C[n+]3ccccc3)CS[C@H]12)c1csc(N)n1)C(=O)O` [Ceftazidime], in data set [1], the “number” value is given as 17/20.

B1: D85(K13A/K16A)-(Lys1-6Orn-1) (peptide)
peptide: Ac-[dK][dL][dOrn][dS][dL][dL][dOrn][dT][dL][dS][dOrn][dA][dA][dA][dA][dA][dL][dOrn][dT][dL][dL][dOrn][dA][dL][dS][dOrn]-NH2
SMILES: CC(=O)N[C@H](CCCCN)C(=O)N[C@H](CC(C)C)C(=O)N[C@H](CCCN)C(=O)N[C@H](CO)C(=O)N[C@H](CC(C)C)C(=O)N[C@H](CC(C)C)C(=O)N[C@H](CCCN)C(=O)N[C@@H](C(=O)N[C@H](CC(C)C)C(=O)N[C@H](CO)C(=O)N[C@H](CCCN)C(=O)N[C@H](C)C(=O)N[C@H](C)C(=O)N[C@H](C)C(=O)N[C@H](C)C(=O)N[C@H](C)C(=O)N[C@H](CC(C)C)C(=O)N[C@H](CCCN)C(=O)N[C@@H](C(=O)N[C@H](CC(C)C)C(=O)N[C@H](CC(C)C)C(=O)N[C@H](CCCN)C(=O)N[C@H](C)C(=O)N[C@H](CC(C)C)C(=O)N[C@H](CO)C(=O)N[C@H](CCCN)C(N)=O)[C@H](C)O)[C@H](C)O
notes: Control AMP without specificity determinants (Ala13/Ala16); also called D85(A13/A16-6Orn-1); D85(K13A/K16A-6 Orn-1)
Regarding B1, the “PA (self-association parameter)” value in data set [3] worked out at 28 min.

B2: D84(Lys1-6Lys-1) (peptide)
peptide: Ac-[dK][dL][dK][dS][dL][dL][dK][dT][dL][dS][dK][dA][dK][dA][dA][dK][dL][dK][dT][dL][dL][dK][dA][dL][dS][dK]-NH2
SMILES: CC(=O)N[C@H](CCCCN)C(=O)N[C@H](CC(C)C)C(=O)N[C@H](CCCCN)C(=O)N[C@H](CO)C(=O)N[C@H](CC(C)C)C(=O)N[C@H](CC(C)C)C(=O)N[C@H](CCCCN)C(=O)N[C@@H](C(=O)N[C@H](CC(C)C)C(=O)N[C@H](CO)C(=O)N[C@H](CCCCN)C(=O)N[C@H](C)C(=O)N[C@H](CCCCN)C(=O)N[C@H](C)C(=O)N[C@H](C)C(=O)N[C@H](CCCCN)C(=O)N[C@H](CC(C)C)C(=O)N[C@H](CCCCN)C(=O)N[C@@H](C(=O)N[C@H](CC(C)C)C(=O)N[C@H](CC(C)C)C(=O)N[C@H](CCCCN)C(=O)N[C@H](C)C(=O)N[C@H](CC(C)C)C(=O)N[C@H](CO)C(=O)N[C@H](CCCCN)C(N)=O)[C@H](C)O)[C@H](C)O
notes: Designed 26-residue AMP; Lys at 3, 7, 11, 18, 22, 26; Lys13/Lys16 specificity determinants; also called D84(6 Lys-1); D84-6 Lys-1
For the molecule B2, the “PA (self-association parameter)” value in data set [3] worked out at 5.9 min. This molecule also came in with an MIC (µM) against A. baumannii strain 649 in 25% human serum (no serum: 0.3) in the data set with serum proteins of 0.3 µM.

B3: D105(K13A/K16A)-(Lys1-6Dap-1) (peptide)
peptide: Ac-[dK][dL][Dap][dS][dL][dL][Dap][dT][dL][dS][Dap][dA][dA][dA][dA][dA][dL][Dap][dT][dL][dL][Dap][dA][dL][dS][Dap]-NH2
SMILES: CC(=O)N[C@H](CCCCN)C(=O)N[C@H](CC(C)C)C(=O)N[C@@H](CN)C(=O)N[C@H](CO)C(=O)N[C@H](CC(C)C)C(=O)N[C@H](CC(C)C)C(=O)N[C@@H](CN)C(=O)N[C@@H](C(=O)N[C@H](CC(C)C)C(=O)N[C@H](CO)C(=O)N[C@@H](CN)C(=O)N[C@H](C)C(=O)N[C@H](C)C(=O)N[C@H](C)C(=O)N[C@H](C)C(=O)N[C@H](C)C(=O)N[C@H](CC(C)C)C(=O)N[C@@H](CN)C(=O)N[C@@H](C(=O)N[C@H](CC(C)C)C(=O)N[C@H](CC(C)C)C(=O)N[C@@H](CN)C(=O)N[C@H](C)C(=O)N[C@H](CC(C)C)C(=O)N[C@H](CO)C(=O)N[C@@H](CN)C(N)=O)[C@H](C)O)[C@H](C)O
notes: Control AMP without specificity determinants (Ala13/Ala16); also called D105(A13/A16-6Dap-1); D105(K13A/K16A-6 Dap-1)
For B3, the “PA (self-association parameter)” value in data set [3] worked out at 18 min. In the data set with serum proteins, this molecule displayed an MIC (µM) against A. baumannii strain 649 in 25% human serum (no serum: 0.8) of 12.5 µM and a fold loss of antimicrobial activity in 25% human sera of 15 fold.

B4: D87(Lys1-6Arg-1) (peptide)
peptide: Ac-[dK][dL][dR][dS][dL][dL][dR][dT][dL][dS][dR][dA][dK][dA][dA][dK][dL][dR][dT][dL][dL][dR][dA][dL][dS][dR]-NH2
SMILES: CC(=O)N[C@H](CCCCN)C(=O)N[C@H](CC(C)C)C(=O)N[C@H](CCCNC(=N)N)C(=O)N[C@H](CO)C(=O)N[C@H](CC(C)C)C(=O)N[C@H](CC(C)C)C(=O)N[C@H](CCCNC(=N)N)C(=O)N[C@@H](C(=O)N[C@H](CC(C)C)C(=O)N[C@H](CO)C(=O)N[C@H](CCCNC(=N)N)C(=O)N[C@H](C)C(=O)N[C@H](CCCCN)C(=O)N[C@H](C)C(=O)N[C@H](C)C(=O)N[C@H](CCCCN)C(=O)N[C@H](CC(C)C)C(=O)N[C@H](CCCNC(=N)N)C(=O)N[C@@H](C(=O)N[C@H](CC(C)C)C(=O)N[C@H](CC(C)C)C(=O)N[C@H](CCCNC(=N)N)C(=O)N[C@H](C)C(=O)N[C@H](CC(C)C)C(=O)N[C@H](CO)C(=O)N[C@H](CCCNC(=N)N)C(N)=O)[C@H](C)O)[C@H](C)O
notes: De novo designed 26-residue amphipathic alpha-helical antimicrobial peptide; Arg at 3, 7, 11, 18, 22, 26; Lys13/Lys16 specificity determinants; also called D87(6Arg-1); D87-6 Arg-1
For the molecule B4, in data set [3], the “PA (self-association parameter)” value came to 5.9 min. Also, in the data set with serum proteins, the MIC (µM) against A. baumannii strain 649 in 25% human serum (no serum: 0.7) worked out at 1.3 µM.

B5: D86(K13A/K16A)-(Lys1-6Dab-1) (peptide)
peptide: Ac-[dK][dL][Dab][dS][dL][dL][Dab][dT][dL][dS][Dab][dA][dA][dA][dA][dA][dL][Dab][dT][dL][dL][Dab][dA][dL][dS][Dab]-NH2
SMILES: CC(=O)N[C@H](CCCCN)C(=O)N[C@H](CC(C)C)C(=O)N[C@@H](CCN)C(=O)N[C@H](CO)C(=O)N[C@H](CC(C)C)C(=O)N[C@H](CC(C)C)C(=O)N[C@@H](CCN)C(=O)N[C@@H](C(=O)N[C@H](CC(C)C)C(=O)N[C@H](CO)C(=O)N[C@@H](CCN)C(=O)N[C@H](C)C(=O)N[C@H](C)C(=O)N[C@H](C)C(=O)N[C@H](C)C(=O)N[C@H](C)C(=O)N[C@H](CC(C)C)C(=O)N[C@@H](CCN)C(=O)N[C@@H](C(=O)N[C@H](CC(C)C)C(=O)N[C@H](CC(C)C)C(=O)N[C@@H](CCN)C(=O)N[C@H](C)C(=O)N[C@H](CC(C)C)C(=O)N[C@H](CO)C(=O)N[C@@H](CCN)C(N)=O)[C@H](C)O)[C@H](C)O
notes: Control AMP without specificity determinants (Ala13/Ala16); also called D86(A13/A16-6Dab-1); D86(K13A/K16A-6 Dab-1)
Regarding B5, the “PA (self-association parameter)” value in data set [3] is 12.5 min. In the data set with serum proteins, the MIC (µM) against A. baumannii strain 649 in 25% human serum (no serum: 0.8) worked out at 3 µM and the fold loss of antimicrobial activity in 25% human sera was 4 fold.

B6: D105(Lys1-6Dap-1) (peptide)
peptide: Ac-[dK][dL][Dap][dS][dL][dL][Dap][dT][dL][dS][Dap][dA][dK][dA][dA][dK][dL][Dap][dT][dL][dL][Dap][dA][dL][dS][Dap]-NH2
SMILES: CC(=O)N[C@H](CCCCN)C(=O)N[C@H](CC(C)C)C(=O)N[C@@H](CN)C(=O)N[C@H](CO)C(=O)N[C@H](CC(C)C)C(=O)N[C@H](CC(C)C)C(=O)N[C@@H](CN)C(=O)N[C@@H](C(=O)N[C@H](CC(C)C)C(=O)N[C@H](CO)C(=O)N[C@@H](CN)C(=O)N[C@H](C)C(=O)N[C@H](CCCCN)C(=O)N[C@H](C)C(=O)N[C@H](C)C(=O)N[C@H](CCCCN)C(=O)N[C@H](CC(C)C)C(=O)N[C@@H](CN)C(=O)N[C@@H](C(=O)N[C@H](CC(C)C)C(=O)N[C@H](CC(C)C)C(=O)N[C@@H](CN)C(=O)N[C@H](C)C(=O)N[C@H](CC(C)C)C(=O)N[C@H](CO)C(=O)N[C@@H](CN)C(N)=O)[C@H](C)O)[C@H](C)O
notes: Designed 26-residue AMP; Lys13/Lys16 specificity determinants; also called D105(6Dap-1); D105-6 Dap-1
With B6, the “PA (self-association parameter)” value in data set [3] was 3.7 min. Also, in the data set with serum proteins, the MIC (µM) against A. baumannii strain 649 in 25% human serum (no serum: 0.8) amounted to 3 µM and the fold change of MIC in 25% human sera against no serum was 4 fold.

B7: D85(Lys1-6Orn-1) (peptide)
peptide: Ac-[dK][dL][dOrn][dS][dL][dL][dOrn][dT][dL][dS][dOrn][dA][dK][dA][dA][dK][dL][dOrn][dT][dL][dL][dOrn][dA][dL][dS][dOrn]-NH2
SMILES: CC(=O)N[C@H](CCCCN)C(=O)N[C@H](CC(C)C)C(=O)N[C@H](CCCN)C(=O)N[C@H](CO)C(=O)N[C@H](CC(C)C)C(=O)N[C@H](CC(C)C)C(=O)N[C@H](CCCN)C(=O)N[C@@H](C(=O)N[C@H](CC(C)C)C(=O)N[C@H](CO)C(=O)N[C@H](CCCN)C(=O)N[C@H](C)C(=O)N[C@H](CCCCN)C(=O)N[C@H](C)C(=O)N[C@H](C)C(=O)N[C@H](CCCCN)C(=O)N[C@H](CC(C)C)C(=O)N[C@H](CCCN)C(=O)N[C@@H](C(=O)N[C@H](CC(C)C)C(=O)N[C@H](CC(C)C)C(=O)N[C@H](CCCN)C(=O)N[C@H](C)C(=O)N[C@H](CC(C)C)C(=O)N[C@H](CO)C(=O)N[C@H](CCCN)C(N)=O)[C@H](C)O)[C@H](C)O
notes: Designed 26-residue AMP; also called D85(6Orn-1)
In the case of B7, the “PA (self-association parameter)” value in data set [3] stood at 4.1 min. The MIC (µM) against A. baumannii strain 649 in 25% human serum (no serum: 0.4) with serum proteins turned out to be 0.2 µM.

(Values after patent publication US20220105150A1, “AMPHIPATHIC ALPHA-HELICAL ANTIMICROBIAL PEPTIDES TREAT INFECTIONS BY GRAM-NEGATIVE PATHOGENS” (priority 2019, published 2022).)
